Results published in ChEMBL document CHEMBL1158988, “Cytotoxic norditerpene lactones from Ileostylus micranthus” (J Nat Prod, 1991).
In brackets after ≈: the same amount, converted by molar mass.

System: P388
Experiment: Cytotoxicity against mouse P388 cells
Assay type: functional, cell-based

| SMILES | IC50 [µg/mL] |
| --- | --- |
| CC(C)[C@H]1OC(=O)C=C2[C@@]13O[C@@H]3[C@H]1OC(=O)[C@@]3(C)C[C@H](O)C[C@@]2(C)[C@@H]13 | 0.06 (≈ 0.172 µM) |
| CC(C)[C@H]1OC(=O)C=C2C1=C[C@H]1OC(=O)[C@@]3(C)C[C@H](O)C[C@@]2(C)[C@@H]13 | 0.06 (≈ 0.181 µM) |
| CC(C)c1oc(=O)cc2c1[C@@H](O)[C@H]1OC(=O)[C@@]3(C)C[C@H]4O[C@H]4[C@@]2(C)[C@@H]13 | 0.65 (≈ 1.88 µM) |
| CC(C)c1oc(=O)cc2c1[C@@H](O)[C@H]1OC(=O)[C@@]3(C)[C@@H](O)[C@H]4O[C@H]4[C@@]2(C)[C@@H]13 [NAGILACTONE C] | 0.33 (≈ 0.911 µM) |
| C=C[C@H]1OC(=O)C=C2C1=C[C@H]1OC(=O)[C@]3(C)[C@H]1[C@]2(C)[C@H]1O[C@H]1[C@@H]3O [PODOLACTONE E] | < 0.01 |
